Results as given in patent US11497740B2, “Use of Jumonji C demethylase inhibitors for the treatment and prevention of chemotherapy resistance and radioresistance in cancer” (THE BOARD OF REGENTS OF THE UNIVERSITY OF TEXAS SYSTEM, priority 2016, dated 2022).

Tests used:
H1299 Parental cells = assay: Emergence of paclitaxel+carboplatin drug-tolerant colonies, H1299 Parental; type: cell-based, human; details: sub-lethal doses with paclitaxel+carboplatin
Text: FIGS. 8A-8E. […] Response was greater than additive, indicated by positive ΔBliss. […] Representative images from replicate assays (n=3) are shown. […] See also FIGS. 15-16.

[1] = test system: radiosensitive (HCC1719, H23, H1650, H1395 and H2228) NSCLC cell lines; assay: Clonogenic survival with IR, radiosensitive NSCLC lines; type: cell-based, Human
Description: Cells were serially diluted to appropriate concentrations and plated into 60-mm dish in triplicate for 4 h. Then cells were treated with the indicated drugs, and irradiated 4 hours later with graded doses of radiation for concurrent treatment or irradiated and 4 hours later the drugs added for post-treatment. All cells were irradiated at room temperature in ambient air using a 137Cs source (Mark 1-68 irradiator, JL Shepherd & Associated). Surviving colonies were stained with crystal violet approximately 10 to 14 days later and colonies formed with more than 50 cells were counted. Clonogenic fraction of irradiated cells was normalized to the plating efficiency of unirradiated controls. The data are presented as the mean±SD. The curve S=e^−(αD+βD2) was fitted to the experimental data using a least square fit algorithm using the program Sigma Plot 11.0 (Systat Software, Inc.).

[2] = test system: non-homologous end joining (NHEJ); assay: Green fluorescent protein NHEJ reporter assay, H1299; type: cell-based, Human; details: H1299 cells with integrated construct
Description: The green fluorescent protein assay was performed as described by Seluanov et al. To generate reporter cell lines 2 million H1299 cells were transfected with 0.5 μg of linearized NHEJ-I, or HR reporter constructs using the Amaxa Nucleofector; program X-005. G418, at 1 mg/ml, was added to the media 1 day post-transfection. Then Transient expression of the I-SceI endonuclease was used to generate a DNA DSB at the integrated GFP gene sequences. Briefly, H1299 cells containing the NHEJ or the HR constructs treated by 4 h with JIB-04 or DMSO were transfected with the pCMV3xnls-I-SceI (5 μg, functional endonuclease) and a pN1-mCherry plasmid (0.05 μg) as transfection control as previously stated. For the analysis of NHEJ and HR cells were harvested, resuspended in ˜1 ml 1×PBS, put on ice, and run on a BD FACScan instrument. GFP and mCherry fluorescence was analyzed using FlowJo software. Red-versus-green was plotted and DNA repair efficiency was calculated from the number of GFP-positive cells divided by the number of cells mCherry-positive cells.

H1693 T8 = assay: MTS cell viability assay, H1693 T8 resistant variant vs parental; type: cell-based, human; details: H1693 T8 vs parental
Description: NSCLC lines were treated with paclitaxel+carboplatin combination, given in a ˜2:3 wt/wt ratio, to mirror the clinical dosage values of ˜225 mg/m2 and ˜330 mg/m2, paclitaxel and carboplatin respectively. Note that considering the molecular weights of the two drugs, this translates to approximately a 1 to 3.4 molar ratio. Drugs were given in cycles, following a drug on/drug off treatment scheme. Each cycle consisted of 4-5 days of drug treatment and drug-free culturing for about 1-2 weeks or more to allow the surviving cells to repopulate the plate. […] Untreated parental cells were simultaneously maintained at all times for comparison. Cell viability was assessed in 96-well plates using standard MTS assays (Promega). Treatment duration in MTS assays was 4 days. Drugs were tested in two- or four-fold serial dilutions, totaling 8 different drug concentrations, with 8 replicates per concentration. Response was validated in multiple replicate plates (n≥3).
Cell viability was assessed by standard MTS assays using Promega's CellTiter reagents. Eight drug concentrations given as two- or four-fold dilutions were tested for each chemotherapeutic agent. In addition, each experiment contained eight replicates per concentration and the entire assay was performed in multiple replicates (n≥3).

HR repair in U2OS cells = assay: GFP HR reporter assay, U2OS cells; type: cell-based
Description: FIGS. 29A-29B. […] FIG. 29A: U2OS cells were transfected with the NHEJ or HR constructs (0.25 ug and 0.5 ug respectively) and a pN1-mCherry plasmid (0.05 ug). Then cells were seeded in the presence or absence of JIB-04. Cells were analyzed by flow cytometry for GFP expression 12 h and 24 h after transfection using green-versus-red fluorescent plot. 10,000 cells were analyzed in each sample and NHEJ or HR Repair Frequency (% GFP+ cells/% mCherry+ cells) plotted. Average+/−SEM of triplicates for one of two representative experiments is shown. ***p<0.001 vs control (Kruskal-Wallis). FIG. 29B: Representative FACS traces for the analysis of NHEJ and HR shown in A.

[3] = test system: H1355 Parental xenografts; assay: Subcutaneous xenograft drug response, H1355 Parental; type: in vivo, mice; details: GSK-J4 100 mg/kg i.p. 5x per week; JIB-04 50 mg/kg oral gavage 3x per week; 4 weeks
Description: Animals were housed under standard, sterile conditions at UTSW animal facility. All experiments were carried out under approved IACUC protocols and followed UTSW animal care procedures. For tumor growth rate studies and docetaxel+cisplatin drug response comparisons, 6-8 week old female NOD/SCID mice were used. For all subsequent in vivo drug response studies, 6 week old female athymic nude mice were used (Charles River Labs, Jackson Labs). Experimental details are provided in supplemental information.
Parental and resistant NSCLC cell lines (1×10^6 cells in PBS or RPMI for H1299; 5×10^6 cells in PBS/matrigel for H1355 and HCC4017) were injected subcutaneously into the right flank of mice. Tumor growth was monitored by caliper measurements and tumor volume was calculated by 0.5×length×width^2). Treatment was started when tumors reached ˜150-200 mm3. Drug/Vehicle therapy was given to tumor volume matched pairs. Docetaxel (3 mg/kg) and cisplatin (3 mg/kg) were given i.p. once a week for 3 weeks. […]

cell cycle distribution = assay: Cell cycle analysis (PI staining); type: cell-based, Human; details: H1299 and A549; JIB-04 4 h with or without IR (2 Gy)
Description: NSCLCs were seeded in 6 wells plate, 24 h latter cells were pretreated with JIB-04 or DMSO for 4 h and exposed to a total dose of 2 Gy. Then cells were collected and fixed using 75% ethanol at […] for at least 24 hours. The cells were resuspended with PBS and incubated with 20 μl 1 mg/ml RNase A (Sigma) and 25 μg ml/ml propidium iodide (Sigma) for 30 min at room temperature. Experiment was done by triplicate, 20,000 cells were counted and the proportion of cells of different phase was analyzed using the software Flowjo.

| Structure (SMILES) | emergence of drug-tolerant persister colonies (H1299 Parental cells) | survival fraction at 2 Gy of radiation (SF2) [1] | NHEJ repair efficiency [2] | fold increased sensitivity vs parental (H1693 T8) [fold] | HR repair (HR repair in U2OS cells) | change in tumor volume relative to treatment start [3] | cell cycle distribution (cell cycle distribution) |
| --- | --- | --- | --- | --- | --- | --- | --- |
| CCOC(=O)CCNc1cc(N2CCc3ccccc3CC2)nc(-c2ccccn2)n1 [GSK-J4] | prevented the emergence of drug-tolerant persister colonies |  |  |  |  |  |  |
| Clc1ccc(N/N=C(\c2ccccc2)c2ccccn2)nc1 [JIB-04] |  | not affecting already radiosensitive lines | ≤ 50 % of normal levels | ~3 | inhibits HR repair | continued to grow in volume | do not Affect Cell Cycle Distribution |
